In US12454531B2, “Substituted piperazine derivatives useful as T cell activators” (BRISTOL-MYERS SQUIBB COMPANY, priority 2019, dated 2025):
Like-named read-outs stand apart in the source and are kept apart here.

Assays:
Human whole blood IFN-γ = assay: Assay 10: Human Whole Blood IFN-γ Assay; format: cell-based; details: anti-CD3 and anti-CD28 stimulation, 100% = 3 μM reference compound, read-out: INFg Whole Blood Normalized Agonist EC50
Protocol: Assay 10: Human Whole Blood IFN-γ Assay
Human venous whole blood (22.5 μL per well), obtained from healthy donors, was pre-treated with compounds for one hour at 37° C. in a humidified 95% air/5% CO2 incubator. The blood was stimulated with 2.5 μL anti-human CD3 and anti-CD28 mAb at a final concentration of 1 μg/mL each for 24 hours at 37° C. IFN-7 in the supernatants was measured using AlphLISA kit (Cat #AL217).

Human whole blood pERK = assay: Assay 11: DGK Human Whole Blood pERK Assay; format: cell-based; details: anti-CD3 stimulation, pERK positive within CD8 positive population, starting concentration 20 μM, read-out: DGK HWB pERK IC50
Protocol: Assay 11: DGK Human Whole Blood pERK Assay
Human whole blood ERK phosphorylation assay was performed with human venous whole blood obtained from healthy donors (drawn with Heparin as anti-coagulant). Serial dilutions of compounds (11 points, 3-fold) in DMSO were added to 384 well plates at 20 nL/well using an ECHO 550 acoustic dispenser (Labcyte) to achieve final starting concentration of 20 μM in assay. Heparinized human whole blood was added to the compound plate at 9 μL per well and incubated for one hour at 37° C. in a humidified 95%, air/5% CO2 incubator. After one hour of compound incubation, 1 μL of human anti-CD3 antibody (in-house) in the presence of cross-linking antibody goat anti-mouse IgG (4 μg/mL) was added to the well at 1 μg/mL final concentration for stimulation of pathway and additionally incubated for 15 minutes at 37° C. Stimulation was stopped by adding 90 μL Fix/Lyse buffer (BD 558049). Cells were washed and stained with anti-CD8 PE (BD 555635) antibodies for 60 minutes at room temperature, washed again, and permeabilized on ice using Perm III buffer (BD 558050) for 30 minutes. Cells were then stained with an Alexa Fluor® 647 anti-ERK1/2 Phospho (Thr202/Tyr204) Antibody (Bioleged 675504) for 60 minutes at 1:50 dilution. Samples were washed and resuspended in dPBS containing 1% BSA (dPBS, Gibco 14190136; BSA, Sigma-Aldrich A9205). Samples analyzed using the Intellicyt® iQue Screener PLUS. The pERK activation was quantitated by the percentage of pERK positive population within CD8 positive population.

DGKα [1] = molecular target: T1, DGKα (Homo sapiens (Human), UniProt P23743); assay: Assay 2: In Vitro DGK Inhibition Assays, Method B (DGKα ADPGLO); format: biochemical; details: 150 μM ATP
Protocol: (§1) Assay 2: In Vitro DGK Inhibition Assays—Method B
(§2) The DGKα and DGKζ reactions were performed using either extruded liposome (DGKα and DGKζ LIPGLO assays) or detergent/lipid micelle substrate (DGKα and DGKζ assays). The reactions were carried out in 50 mM MOPS pH 7.5, 100 mM NaCl, 10 mM MgCl2, 1 μM CaCl2), and 1 mM DTT (assay buffer). The reactions using a detergent/lipid micelle substrate also contained 50 mM octyl B-D-glucopyranoside. The lipid substrate concentrations were 11 mM PS and 1 mM DAG for the detergent/lipid micelle reactions. The lipid substrate concentrations were 2 mM PS, 0.25 mM DAG, and 2.75 mM PC for the extruded liposome reactions (5 mM total lipid). The reactions were carried out in 150 μM ATP. The enzyme concentrations for the DGKα and DGKζ were nM.
(§3) The compound inhibition studies were carried out as follows: 25 nL droplets of each test compound (top concentration 10 mM with 11 point, 3-fold dilution series for each compound) solubilized in DMSO were transferred to wells of a white 1536 well plate (Corning 3725). A 5 mL enzyme/lipid substrate solution at 2× final reaction concentration was prepared by combining 2.5 mL 4× enzyme solution (20 nM DGKα or DGKζ (prepared as described below) in assay buffer) and 2.5 mL of either 4× liposome or 4× detergent/lipid micelle solution (compositions described below) and incubated at room temperature for 10 minutes. Next, 1 μL 2× enzyme/lipid substrate solution was added to wells containing the test compound and reactions were initiated with the addition of 1 μL 300 uM ATP. The reactions were allowed to proceed for 2 hr, after which 2 μL Glo Reagent (Promega V9101) was added and incubated for 40 minutes. Next, 4 μL Kinase Detection Reagent was added and incubated for 30 minutes. Luminescence was recorded using an EnVision microplate reader. […] The compounds were evaluated at 11 concentrations to determine IC50.
The detergent/lipid micelle was prepared by combining 15 g phosphatidylserine (Avanti 840035P) and 1 g diacylglycerol (8008110) and dissolving into 150 mL chloroform in a 2 L round bottom flask. Chloroform was removed under high vacuum by rotary evaporation. The resulting colorless, tacky oil was resuspended in 400 mL 50 mM MOPS pH 7.5, 100 mM NaCl, 20 mM NaF, 10 mM MgCl2, 1 μM CaCl2), 1 mM DTT, and 200 mM octyl glucoside by vigorous mixing. The lipid/detergent solution was split into 5 mL aliquots and stored at −80° C.
(§4) The lipid composition was 5 mol % DAG (Avanti 8008110), 40 mol % PS (Avanti 840035P), and 55 mol % PC (Avanti 850457) at a total lipid concentration of 7-8 mg/mL for the liposome solution. The PC, DAG, and PS were dissolved in chloroform, combined, and dried in vacuo to a thin film. The lipids were hydrated to 20 mM in 50 mM MOPS pH 7.5, 100 mM NaCl, 5 mM MgCl2, and were freeze-thawed five times. The lipid suspension was extruded through a 100 nm polycarbonate filter 10-12 times. Dynamic light scattering was carried out to confirm liposome size (50-60 nm radius). The liposome preparation was stored at 4° C. for as long as four weeks.
Human MA-hDGKα-(S9-S727)-Ct-TVMV-His-pFBgate and full length human DGK-ζ-transcript variant-2-TVMV-His-pFBgate baculovirus samples were generated using the Bac-to-Bac baculovirus expression system (Invitrogen) according to the manufacturer's protocol (note: MA- in name of DGKα reagents indicates two extra amino acids added prior to Ser-9). The DNA used for expression of the DGK-α(9-727) and DGK-C have SEQ ID NOs: 5 and 3, respectively. […]
Target sequence in this assay (P23743 other isoform, or with tags, fused parts or gaps): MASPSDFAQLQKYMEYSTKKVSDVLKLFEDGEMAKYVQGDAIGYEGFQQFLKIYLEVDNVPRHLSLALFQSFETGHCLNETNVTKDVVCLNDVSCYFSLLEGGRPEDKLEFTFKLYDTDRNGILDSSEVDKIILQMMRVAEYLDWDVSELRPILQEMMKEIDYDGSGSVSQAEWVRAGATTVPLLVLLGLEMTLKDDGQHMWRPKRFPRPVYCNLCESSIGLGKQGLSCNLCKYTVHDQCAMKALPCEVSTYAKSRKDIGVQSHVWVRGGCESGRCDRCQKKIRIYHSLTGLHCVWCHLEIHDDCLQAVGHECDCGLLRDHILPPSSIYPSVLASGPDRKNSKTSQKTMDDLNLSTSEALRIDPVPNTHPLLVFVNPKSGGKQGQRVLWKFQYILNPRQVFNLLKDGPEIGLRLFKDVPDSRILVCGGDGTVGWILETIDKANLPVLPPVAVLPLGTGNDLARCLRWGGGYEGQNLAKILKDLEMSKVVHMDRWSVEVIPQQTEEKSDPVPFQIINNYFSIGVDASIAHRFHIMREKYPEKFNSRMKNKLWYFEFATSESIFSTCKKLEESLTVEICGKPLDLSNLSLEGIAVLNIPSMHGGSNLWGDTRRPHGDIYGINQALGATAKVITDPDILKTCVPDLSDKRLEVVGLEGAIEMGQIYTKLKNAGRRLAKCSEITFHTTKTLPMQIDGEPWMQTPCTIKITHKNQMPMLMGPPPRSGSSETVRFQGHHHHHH

DGKζ = DGKζ (Homo sapiens (Human), UniProt Q13574); assay: Assay 1 or 2: In Vitro DGK Inhibition Assays (DGKζ LIPGLO, extruded liposome); format: biochemical; details: extruded liposome substrate, 150 μM ATP
Protocol: (§5) Assay 1: In Vitro DGK Inhibition Assays—Method A
as §2, with “reactions.” for “reactions (5 mM total lipid).”, “5 nM” for “nM.”
as §3, with “follows: 50” for “follows: 25”, “mL enzyme/substrate” for “mL enzyme/lipid substrate”, “2× enzyme/substrate” for “2× enzyme/lipid substrate”, “for 1” for “for 2”
as §4, with “15.2” for “7-8”, “the 4×” for “the”, “eleven” for “10-12”, “Dynamic light scattering was carried out to confirm liposome size (50-60 nm radius).” left out
(§6) Baculovirus amplification was achieved using infected Sf9 cells at 1:1500 virus/cell ratios, and grown for 65 hours at 27° C. post-transfection.
(§7) The cells were lysed using nitrogen cavitation method with a nitrogen bomb (Parr Instruments), and the lysates were clarified by centrifugation. […] The three steps column chromatography included nickel affinity resin capture (i.e. HisTrap FF crude, GE Healthcare), followed by size exclusion chromatography (i.e. HiLoad 26/600 Superdex 200 prep grade, GE Healthcare for DGK-alpha, and HiPrep 26/600 Sephacryl S 300_HR, GE Healthcare for DGK-zeta). The third step was ion exchange chromatography, and differed for the two isoforms. DGKα was polished using Q-Sepharose anion exchange chromatography (GE Healthcare). DGKζ was polished using SP Sepharose cation exchange chromatography (GE Healthcare). The proteins were delivered at concentrations of ≥2 mg/mL. The formulation buffers were identical for both proteins: 50 mM Hepes, pH 7.2, 500 mM NaCl, 10% v/v glycerol, 1 mM TCEP, and 0.5 mM EDTA.
as §1
The DGKα and DGKζ reactions were performed using either extruded liposome (DGKα and DGKζ LIPGLO assays) or detergent/lipid micelle substrate (DGKα and DGKζ assays).

DGKα [2] = molecular target: T1, DGKα; assay: Assay 1: In Vitro DGK Inhibition Assays, Method A (DGKα LIPGLO, extruded liposome); format: biochemical; details: extruded liposome substrate, 150 μM ATP
Protocol: as §5
as §2, with “reactions.” for “reactions (5 mM total lipid).”, “5 nM” for “nM.”
as §3, with “follows: 50” for “follows: 25”, “mL enzyme/substrate” for “mL enzyme/lipid substrate”, “2× enzyme/substrate” for “2× enzyme/lipid substrate”, “for 1” for “for 2”
as §4, with “15.2” for “7-8”, “the 4×” for “the”, “eleven” for “10-12”, “Dynamic light scattering was carried out to confirm liposome size (50-60 nm radius).” left out
as §6, §7
Target sequence in this assay (P23743 whole entry): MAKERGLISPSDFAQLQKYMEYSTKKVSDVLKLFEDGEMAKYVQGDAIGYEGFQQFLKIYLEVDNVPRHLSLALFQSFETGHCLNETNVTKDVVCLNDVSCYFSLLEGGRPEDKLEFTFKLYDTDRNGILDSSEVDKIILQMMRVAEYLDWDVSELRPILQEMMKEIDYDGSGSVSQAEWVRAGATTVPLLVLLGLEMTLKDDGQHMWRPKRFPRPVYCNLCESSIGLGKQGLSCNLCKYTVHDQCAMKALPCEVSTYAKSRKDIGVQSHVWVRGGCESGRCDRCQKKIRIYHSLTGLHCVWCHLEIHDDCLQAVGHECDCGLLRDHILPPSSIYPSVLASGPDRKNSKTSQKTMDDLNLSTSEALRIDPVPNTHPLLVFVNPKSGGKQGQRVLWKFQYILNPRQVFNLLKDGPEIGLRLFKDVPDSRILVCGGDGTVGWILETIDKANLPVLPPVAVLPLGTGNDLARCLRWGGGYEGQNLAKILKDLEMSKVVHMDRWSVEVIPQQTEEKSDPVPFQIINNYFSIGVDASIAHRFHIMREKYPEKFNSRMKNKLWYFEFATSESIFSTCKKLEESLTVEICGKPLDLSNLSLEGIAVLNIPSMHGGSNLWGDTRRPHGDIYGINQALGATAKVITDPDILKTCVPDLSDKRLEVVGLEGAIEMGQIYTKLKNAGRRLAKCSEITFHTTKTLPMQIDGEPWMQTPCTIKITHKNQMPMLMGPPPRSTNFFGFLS

Chain of DGKζ (Q13574 other isoform, or with tags, fused parts or gaps): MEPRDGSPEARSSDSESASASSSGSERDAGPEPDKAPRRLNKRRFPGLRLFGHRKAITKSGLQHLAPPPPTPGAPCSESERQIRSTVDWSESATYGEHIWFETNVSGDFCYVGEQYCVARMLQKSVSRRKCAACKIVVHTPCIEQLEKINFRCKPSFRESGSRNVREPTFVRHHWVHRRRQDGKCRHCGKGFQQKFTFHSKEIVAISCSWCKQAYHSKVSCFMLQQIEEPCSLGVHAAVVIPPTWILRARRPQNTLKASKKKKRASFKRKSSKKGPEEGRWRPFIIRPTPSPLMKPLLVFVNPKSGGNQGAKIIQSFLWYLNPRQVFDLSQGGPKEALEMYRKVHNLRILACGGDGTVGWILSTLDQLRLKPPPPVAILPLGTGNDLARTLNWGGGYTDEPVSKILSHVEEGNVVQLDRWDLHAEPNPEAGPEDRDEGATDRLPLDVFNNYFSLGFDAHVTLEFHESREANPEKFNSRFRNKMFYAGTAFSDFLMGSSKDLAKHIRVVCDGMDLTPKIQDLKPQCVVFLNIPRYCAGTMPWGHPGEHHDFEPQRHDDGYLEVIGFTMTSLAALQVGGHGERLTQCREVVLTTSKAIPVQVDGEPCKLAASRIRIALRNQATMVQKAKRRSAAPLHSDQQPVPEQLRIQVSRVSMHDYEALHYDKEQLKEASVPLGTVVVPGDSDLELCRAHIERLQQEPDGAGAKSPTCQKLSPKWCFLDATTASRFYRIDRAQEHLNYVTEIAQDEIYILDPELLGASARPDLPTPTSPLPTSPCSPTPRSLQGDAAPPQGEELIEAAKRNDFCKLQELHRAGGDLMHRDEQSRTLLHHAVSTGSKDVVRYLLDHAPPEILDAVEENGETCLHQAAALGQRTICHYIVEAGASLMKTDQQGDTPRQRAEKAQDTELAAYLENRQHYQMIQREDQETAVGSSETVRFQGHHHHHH

Compound	EC50 (Human whole blood IFN-γ; 24 hours) [nM]	IC50 (Human whole blood pERK; Homo sapiens, CD8 positive) [nM]	IC50 (DGKα [1]) [nM]	EC50 (Human whole blood IFN-γ; Homo sapiens, 24 h) [nM]	IC50 (DGKζ) [nM]	IC50 (Human whole blood pERK) [nM]	IC50 (DGKα [2]) [nM]
CC(C)OC(=O)C(c1ccc(F)cc1)N1C[C@H](C)N(c2cc(=O)n(C)c3ccc(C#N)nc23)C[C@H]1C (single isomer, unassigned) [Example 2]	60	80	–	–	–	–	–
CC[C@H]1CN(C(C(=O)NCCOC)c2ccc(C(F)(F)F)cc2)[C@H](CC)CN1c1nc(=O)n(C)c2ccc(C#N)nc12 (single isomer, unassigned) [Example 55]	–	–	10	–	–	–	–
C#CCCC1(CCCOC(=O)C(c2ccc(OC)cc2)N2C[C@H](C)N(c3nc(=O)n(C)c4ccc(C#N)nc34)C[C@H]2C)N=N1 (single isomer, unassigned) [Example 60]	–	–	180	–	–	–	–
C[C@@H]1CN(c2cc(=O)n(C)c3ccc(C#N)nc23)[C@@H](C)CN1C(C(=O)Nc1ccn(C)n1)c1ccc(F)cc1 (stereo partly drawn) [Example 15, 2-((2R,5S)-4-(6-cyano-1-methyl-2-oxo-1,2-dihydro-1,5-naphthyridin-4-yl)-2,5-dimethylpiperazin-1-yl)-2-(4-fluorophenyl)-N-(1-methyl-1H-pyrazol-3-yl)acetamide]	–	–	–	20000	9840	20000	279000
C[C@@H]1CN(c2cc(=O)n(C)c3ccc(C#N)nc23)[C@@H](C)CN1C(C(=O)Nc1ccn(C)n1)c1ccc(F)cc1 (stereo partly drawn) [Example 16, 2-((2R,5S)-4-(6-cyano-1-methyl-2-oxo-1,2-dihydro-1,5-naphthyridin-4-yl)-2,5-dimethylpiperazin-1-yl)-2-(4-fluorophenyl)-N-(1-methyl-1H-pyrazol-3-yl)acetamide]	14400	–	–	–	1340	5930	500
CNC(=O)C(c1ccc(F)cc1)N1C[C@H](C)N(c2cc(=O)n(C)c3ccc(C#N)nc23)C[C@H]1C (stereo partly drawn) [Example 26, 2-((2R,5S)-4-(6-cyano-1-methyl-2-oxo-1,2-dihydro-1,5-naphthyridin-4-yl)-2,5-dimethylpiperazin-1-yl)-2-(4-fluorophenyl)-N-methylacetamide]	20000	13100	–	–	–	–	–
CC(C)N(C)C(=O)CC(c1ccc(F)cc1)N1C[C@H](C)N(c2cc(=O)n(C)c3ccc(C#N)nc23)C[C@H]1C (stereo partly drawn) [Example 41, 3-[(2R,5S)-4-(6-cyano-1-methyl-2-oxo-1,2-dihydro-1,5-naphthyridin-4-yl)-2,5-dimethylpiperazin-1-yl]-3-(4-fluorophenyl)-N-methyl-N-(propan-2-yl)propanamide]	–	410	–	1590	390	–	1140
